One data set deals with T1, Tyrosinase (Agaricus bisporus, UniProt O42713).
T1 sequence (O42713 whole entry): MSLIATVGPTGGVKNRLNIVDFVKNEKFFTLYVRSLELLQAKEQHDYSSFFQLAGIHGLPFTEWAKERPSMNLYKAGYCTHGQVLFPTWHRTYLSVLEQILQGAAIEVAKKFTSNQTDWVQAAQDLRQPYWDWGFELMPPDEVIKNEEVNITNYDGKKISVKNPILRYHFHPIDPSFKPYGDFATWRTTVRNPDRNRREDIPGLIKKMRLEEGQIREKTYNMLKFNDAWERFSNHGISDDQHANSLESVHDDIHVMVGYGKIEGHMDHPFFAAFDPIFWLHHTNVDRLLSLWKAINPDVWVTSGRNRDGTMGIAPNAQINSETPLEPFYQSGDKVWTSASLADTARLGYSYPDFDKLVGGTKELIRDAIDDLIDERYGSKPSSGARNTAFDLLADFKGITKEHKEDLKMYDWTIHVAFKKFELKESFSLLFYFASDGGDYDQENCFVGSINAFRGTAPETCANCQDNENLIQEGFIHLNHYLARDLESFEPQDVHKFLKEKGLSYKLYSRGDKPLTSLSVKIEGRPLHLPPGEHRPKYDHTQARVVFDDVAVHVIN
Nature of the data set: Inhibition of mushroom tyrosinase using L-DOPA as substrate assessed as formation of L-DOPA chrome preincubated for 10 mins followed by addition of substrate measured over 10 mins by […].

Data set [1] concerns the target T2, Tyrosinase (Mus musculus) (UniProt P11344).
T2 sequence (whole entry): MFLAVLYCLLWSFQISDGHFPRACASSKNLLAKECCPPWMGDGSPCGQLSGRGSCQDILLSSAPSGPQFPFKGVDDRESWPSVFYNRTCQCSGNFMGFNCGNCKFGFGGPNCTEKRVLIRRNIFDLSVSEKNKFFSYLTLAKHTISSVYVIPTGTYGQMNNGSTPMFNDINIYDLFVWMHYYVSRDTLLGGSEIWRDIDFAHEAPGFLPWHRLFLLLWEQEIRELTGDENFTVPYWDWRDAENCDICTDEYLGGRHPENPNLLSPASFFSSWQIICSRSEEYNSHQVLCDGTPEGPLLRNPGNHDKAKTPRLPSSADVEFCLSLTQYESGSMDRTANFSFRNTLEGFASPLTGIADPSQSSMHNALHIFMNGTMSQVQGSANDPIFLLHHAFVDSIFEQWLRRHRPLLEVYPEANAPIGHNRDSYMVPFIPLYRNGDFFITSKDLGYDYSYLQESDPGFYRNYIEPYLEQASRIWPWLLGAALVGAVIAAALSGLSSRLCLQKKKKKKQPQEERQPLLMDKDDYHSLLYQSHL
Nature of the data set: Inhibition of tyrosinase in mouse B16F10 cells assessed as reduction of melanin production at 20 ug/ml incubated for 72 hrs. In kind it is cell-based. Conditions: B16-F10.

Data set [2] in a line: Cytotoxicity against mouse B16F10 cells assessed as cell viability at 20 ug/ml incubated for 72 hrs by MTT assay. The data set is classed as cell-based, B16-F10. Conditions: read-out: Activity. A general note: Formazan colour is commonly taken as a measure of viable cells.

The structures appear in SMILES notation. pIC50: −log10 of the molar value.

As for `O=C1OC(c2ccc(/N=N/c3ccc(N4CCOCC4)cc3)cc2)=N/C1=C/c1ccc(F)cc1`, at Tyrosinase, the pIC50 (commonly −log10 of the IC50, conventionally taken in molar units) is 4.80. In addition, the inhibition – broadly, the change of the read-out against control, counted positive when it falls – in data set [1] turned out to be 38.8%. For the same molecule, in data set [2], the viability at 72 h, 20 ug/ml worked out at 57.2%.
On to `O=C1OC(c2ccc(/N=N/c3ccc(N4CCOCC4)cc3)cc2)=N/C1=C/c1ccccc1[N+](=O)[O-]`, for which, at Tyrosinase, the negative-log IC50 (pIC50) is 4.69. Also, the inhibition in data set [1] amounted to 30.7%. In addition, in data set [2], the viability at 72 h, 20 ug/ml came to 58.1%.
As to `O=C1OC(c2ccc(/N=N/c3ccc(N4CCOCC4)cc3)cc2)=N/C1=C/c1ccc(Cl)cc1`, the negative-log IC50 (pIC50) on Tyrosinase was 4.72. In addition, in data set [1], the inhibition came out at 34.4%. In data set [2], the viability at 72 h, 20 ug/ml is 61.9%.
For `O=C1OC(c2ccc(/N=N/c3ccc(N4CCOCC4)cc3)cc2)=N/C1=C/c1ccc(F)cc1Cl` the same measures were 4.80, 32.4% and 60.7%.
The like results for `O=C1OC(c2ccc(/N=N/c3ccc(N4CCOCC4)cc3)cc2)=N/C1=C/c1cccs1` were, in that order, 4.86, 31.2% and 56.7%.
The like results for `O=C1OC(c2ccc(/N=N/c3ccc(N4CCOCC4)cc3)cc2)=N/C1=C/c1ccccc1` were, in that order, 4.76, 40.1% and 62.9%.
